Experimental data reported in patent publication US20240287139A1, “A NOVEL COMPOUND ACTING AGAINST A SELECT GROUP OF BACTERIA” (priority 2021, published 2024).
pIC50: −log10 of the molar value. In brackets after ≈: the same amount, converted by molar mass. Where two headings read alike, the source gives them in different places. *1 amine or outer side, *2 acyl side, *3 side chain or, on linkers, in order; H or OH if unused. Where a SMILES comes first, the peptide text is derived from it. Bridges are numbered along the chain shown (N, C = ends). [ ]: non-standard residue; d: D form. The star is where a group is joined. ξ: configuration not given here. ξThr(3R)(O-yl) = C[C@@H](O[*:3])C(N[*:1])C(=O)[*:2]; βAsp = O=C(O)[C@H](CC(=O)[*:2])N[*:1]; His(π-Me) = Cn1cncc1C[C@H](N)C(=O)O; For = O=C*

Assays:
[1] = system: Mycobacterium tuberculosis H37Rv mc^26020; assay: microbe, parasite or virus in culture; assay type: cell-based
[2] = system: Mycobacterium tuberculosis H37Rv mc^26020 mCherry; assay: microbe, parasite or virus in culture; assay type: cell-based
[3] = system: Mycobacterium tuberculosis H37Rv mc^26020 ΔbacA; assay: microbe, parasite or virus in culture; assay type: cell-based
[4] = system: Mycobacterium smegmatis mc^2155; assay: microbe, parasite or virus in culture; assay type: cell-based; conditions: Mycolicibacterium smegmatis
[5] = system: Mycobacterium abscessus ATCC 19977; assay: microbe, parasite or virus in culture; assay type: cell-based; conditions: Mycobacteroides abscessus, ATCC19977
[6] = system: Staphylococcus aureus HG003; assay: microbe, parasite or virus in culture; assay type: cell-based
[7] = system: Escherichia coli WO153; assay: microbe, parasite or virus in culture; assay type: cell-based
[8] = system: Escherichia coli ΔtolC; assay: microbe, parasite or virus in culture; assay type: cell-based
[9] = system: Escherichia coli ATCC25922; assay: microbe, parasite or virus in culture; assay type: cell-based
[10] = system: Escherichia coli BW25113; assay: microbe, parasite or virus in culture; assay type: cell-based
[11] = system: Escherichia coli MG1655; assay: microbe, parasite or virus in culture; assay type: cell-based
[12] = system: Escherichia coli ΔSbmA; assay: microbe, parasite or virus in culture; assay type: cell-based; conditions: Keio collection mutant
[13] = system: Klebsiella pneumoniae ATCC 700603; assay: microbe, parasite or virus in culture; assay type: cell-based; conditions: ATCC700603
[14] = system: Clostridium perfringens KLE 2523; assay: microbe, parasite or virus in culture; assay type: cell-based; conditions: KLE2523
[15] = system: Enterococcus faecalis KLE 2341; assay: microbe, parasite or virus in culture; assay type: cell-based; conditions: KLE2341; Enterococcus faecalis KLE 2341, anaerobic conditions, human stool isolate
[16] = system: Acinetobacter baumannii ATCC 17978; assay: microbe, parasite or virus in culture; assay type: cell-based; conditions: ATCC17978
[17] = system: Salmonella enterica KLE 2601; assay: microbe, parasite or virus in culture; assay type: cell-based; conditions: KLE2601; Salmonella enterica KLE 2601, anaerobic conditions, human stool isolate
[18] = system: Pseudomonas aeruginosa PA01; assay: microbe, parasite or virus in culture; assay type: cell-based
[19] = system: Lactobacillus reuteri LTH5448; assay: microbe, parasite or virus in culture; assay type: cell-based; conditions: Limosilactobacillus reuteri; Lactobacillus reuteri LTH5448, anaerobic conditions
[20] = system: Lactobacillus paracasei KLE 2504; assay: microbe, parasite or virus in culture; assay type: cell-based; conditions: Lacticaseibacillus paracasei, KLE2504; Lactobacillus paracasei KLE 2504, anaerobic conditions, human stool isolate
[21] = system: Streptococcus parasanguinis KLE 2509; assay: microbe, parasite or virus in culture; assay type: cell-based; conditions: KLE2509; Streptococcus parasanguinis KLE 2509, anaerobic conditions, human stool isolate
[22] = system: Bacteroides fragilis KLE 2244; assay: microbe, parasite or virus in culture; assay type: cell-based; conditions: KLE2244; Bacteroides fragilis KLE 2244, anaerobic conditions, human stool isolate
[23] = system: Bacteroides stercoris KLE 2537; assay: microbe, parasite or virus in culture; assay type: cell-based; conditions: KLE2537; Bacteroides stercoris KLE 2537, anaerobic conditions, human stool isolate
[24] = system: Veillonella ratti KLE 2365; assay: microbe, parasite or virus in culture; assay type: cell-based; conditions: KLE2365; Veillonella ratti KLE 2365, anaerobic conditions, human stool isolate
[25] = assay type: in vivo, mouse; conditions: intraperitoneally at 100 mg kg^−1, observed for 24 hours
[26] = system: E. coli ATCC 25922; assay: Septicemia model, survival; assay type: in vivo, mice; conditions: 1 h after infection
Experimental: The inventors next tested the compound of Formula IV in a simple model of septicemia infection with E. coli to evaluate its potential for activity in vivo. […] Mice were infected with E. coli ATCC25922 intraperitoneally for 1 hour followed by intraperitoneal administration of the compound of Formula IV.
Animal study was performed at Northeastern University, approved by Northeastern IACUC, and was performed according to institutional animal care and policies. Experiments were not randomized nor blinded, as it was not deemed necessary. Female CD-1 mice (20-25 g, experimentally naive, 6 weeks old) from Charles River were used for all studies. The compound of Formula IV was tested in a septicemia model against E. coli ATCC 25922. Mice were infected with 0.5 ml of E. coli ATCC 25922 suspension in BHI with 5% mucin (1×10^6 to 5×10^6) via intraperitoneal injection. This dose achieves >83% mortality within 24 h after infection. At 1 h after infection, mice were treated by the compound of Formula IV from 10 mg kg^−1 to 100 mg kg^−1 by intraperitoneal injection. Infection control mice were treated with 50 mg kg^−1 gentamicin as positive control. Survival was monitored for 120 h.

[27] = system: E. coli WO153; assay: Macromolecule incorporation assay; assay type: cell-based; conditions: 8×MIC
Experimental: Incorporation of ^14C-thymidine (DNA), ^14C-uridine (RNA), ^14C-L-amino acid mixture (protein), ^14C-acetic acid (fatty acid) and ^14C-acetyl-glucosamine (peptidoglycan) was determined in cells treated with 8×MIC of the compound of Formula IV (grey bars). Ciprofloxacin (8×MIC), rifampicin (8×MIC), chloramphenicol (8×MIC), triclosan (8×MIC) and fosfomycin (8×MIC) were used as controls (white bars). There were n=3 biologically independent samples.
Macromolecular synthesis assay against DNA, RNA, protein and fatty acid were analyzed by ImQuest BioSciences Inc. (MD, USA) with E. coli WO153 cells.

[28] = system: M. tuberculosis; assay: Microscopy, cell elongation; assay type: cell-based; conditions: 10×MIC, 48 hours of treatment
[29] = system: M. tuberculosis H37Rv mc^26020; assay: Time-dependent killing; assay type: cell-based; conditions: 10×MIC
[30] = molecular target: T1, MtbGyrase (Mycobacterium tuberculosis, UniProt P9WG45+P9WG47); assay type: biochemical, M. tuberculosis; conditions: 100 μM compound, 0-20 nM enzyme
[31] = molecular target: E. coli gyrase (Escherichia coli, UniProt P0AES4+P0AES6); assay type: biochemical; conditions: 100 μM compound
[32] = molecular target: E. coli topoisomerase IV (topo IV) (Escherichia coli, UniProt P0AFI2+P20083); assay type: biochemical; conditions: 100 μM compound; strong cleavage visible at 5 nM enzyme
[33] = molecular target: T1, MtbGyrase; assay: biochemical; parameters: species or system M. tuberculosis; conditions: 20 nM MtbGyrase
[34] = system: commensal bacteria including Lactobacillus sp. and Bacteroides sp.; assay type: cell-based
[35] = system: wild type E. coli; assay: microbe, parasite or virus in culture; assay type: cell-based; conditions: Escherichia coli
[36] = system: HepG2
[37] = system: FaDu
[38] = system: HEK293
[39] = system: HepG2; assay: cells; conditions: Homo sapiens, HepG2, read-out: Human cell line (IC50)
[40] = system: FaDu; assay: cells; conditions: Homo sapiens, read-out: Human cell line (IC50)
[41] = system: HEK293; assay: cells; conditions: Homo sapiens, HEK293, read-out: Human cell line (IC50)
[42] = physchem; conditions: water
[43] = molecular target: T1, MtbGyrase; assay: DNA-stimulated ATPase assay (NADH-coupled); conditions: 250 nM gyrase, 100 μM drug
[44] = Mycobacterium tuberculosis, M. tuberculosis H37Rv mc^26020, read-out: MIC

T1 sequence (P9WG45 whole entry, looked up): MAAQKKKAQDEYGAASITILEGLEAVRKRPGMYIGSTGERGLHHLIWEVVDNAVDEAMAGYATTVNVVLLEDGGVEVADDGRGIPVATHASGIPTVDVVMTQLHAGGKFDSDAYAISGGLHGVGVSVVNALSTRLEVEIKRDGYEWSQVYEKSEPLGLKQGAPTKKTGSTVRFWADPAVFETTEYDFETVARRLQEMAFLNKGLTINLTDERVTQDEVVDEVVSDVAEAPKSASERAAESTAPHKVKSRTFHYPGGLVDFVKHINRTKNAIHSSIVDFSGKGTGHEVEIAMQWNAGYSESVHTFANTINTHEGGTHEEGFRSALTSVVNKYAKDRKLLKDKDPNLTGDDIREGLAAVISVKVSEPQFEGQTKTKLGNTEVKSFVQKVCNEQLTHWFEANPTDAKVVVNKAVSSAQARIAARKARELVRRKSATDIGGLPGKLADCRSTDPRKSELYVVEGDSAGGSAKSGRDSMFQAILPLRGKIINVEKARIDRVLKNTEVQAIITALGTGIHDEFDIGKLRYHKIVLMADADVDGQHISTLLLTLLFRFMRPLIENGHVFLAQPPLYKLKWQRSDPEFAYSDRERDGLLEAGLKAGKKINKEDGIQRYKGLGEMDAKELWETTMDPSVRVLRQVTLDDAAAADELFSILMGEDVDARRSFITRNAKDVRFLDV
T1 sequence (P9WG47 whole entry, looked up): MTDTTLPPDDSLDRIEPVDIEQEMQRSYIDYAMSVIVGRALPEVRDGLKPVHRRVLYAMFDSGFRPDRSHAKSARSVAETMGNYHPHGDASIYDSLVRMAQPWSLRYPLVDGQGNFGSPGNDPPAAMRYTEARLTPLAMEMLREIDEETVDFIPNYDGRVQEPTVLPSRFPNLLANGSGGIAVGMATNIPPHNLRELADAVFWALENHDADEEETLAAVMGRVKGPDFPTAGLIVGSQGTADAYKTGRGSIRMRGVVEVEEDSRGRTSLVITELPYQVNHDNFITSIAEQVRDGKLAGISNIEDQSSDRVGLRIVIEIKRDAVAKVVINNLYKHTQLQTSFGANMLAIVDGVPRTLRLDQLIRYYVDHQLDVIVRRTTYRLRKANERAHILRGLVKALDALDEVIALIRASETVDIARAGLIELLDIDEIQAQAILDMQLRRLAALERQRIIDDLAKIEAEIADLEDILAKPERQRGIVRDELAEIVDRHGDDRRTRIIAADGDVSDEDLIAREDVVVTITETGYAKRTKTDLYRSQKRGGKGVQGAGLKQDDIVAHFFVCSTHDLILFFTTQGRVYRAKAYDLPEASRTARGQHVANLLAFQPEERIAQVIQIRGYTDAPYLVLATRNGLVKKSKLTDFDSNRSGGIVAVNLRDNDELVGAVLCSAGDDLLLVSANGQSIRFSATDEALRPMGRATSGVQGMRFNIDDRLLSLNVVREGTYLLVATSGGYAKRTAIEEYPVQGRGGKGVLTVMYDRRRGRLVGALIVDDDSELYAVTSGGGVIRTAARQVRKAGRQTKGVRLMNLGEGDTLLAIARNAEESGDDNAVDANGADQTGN
E. coli gyrase, sequence (P0AES4 whole entry, one chain of several): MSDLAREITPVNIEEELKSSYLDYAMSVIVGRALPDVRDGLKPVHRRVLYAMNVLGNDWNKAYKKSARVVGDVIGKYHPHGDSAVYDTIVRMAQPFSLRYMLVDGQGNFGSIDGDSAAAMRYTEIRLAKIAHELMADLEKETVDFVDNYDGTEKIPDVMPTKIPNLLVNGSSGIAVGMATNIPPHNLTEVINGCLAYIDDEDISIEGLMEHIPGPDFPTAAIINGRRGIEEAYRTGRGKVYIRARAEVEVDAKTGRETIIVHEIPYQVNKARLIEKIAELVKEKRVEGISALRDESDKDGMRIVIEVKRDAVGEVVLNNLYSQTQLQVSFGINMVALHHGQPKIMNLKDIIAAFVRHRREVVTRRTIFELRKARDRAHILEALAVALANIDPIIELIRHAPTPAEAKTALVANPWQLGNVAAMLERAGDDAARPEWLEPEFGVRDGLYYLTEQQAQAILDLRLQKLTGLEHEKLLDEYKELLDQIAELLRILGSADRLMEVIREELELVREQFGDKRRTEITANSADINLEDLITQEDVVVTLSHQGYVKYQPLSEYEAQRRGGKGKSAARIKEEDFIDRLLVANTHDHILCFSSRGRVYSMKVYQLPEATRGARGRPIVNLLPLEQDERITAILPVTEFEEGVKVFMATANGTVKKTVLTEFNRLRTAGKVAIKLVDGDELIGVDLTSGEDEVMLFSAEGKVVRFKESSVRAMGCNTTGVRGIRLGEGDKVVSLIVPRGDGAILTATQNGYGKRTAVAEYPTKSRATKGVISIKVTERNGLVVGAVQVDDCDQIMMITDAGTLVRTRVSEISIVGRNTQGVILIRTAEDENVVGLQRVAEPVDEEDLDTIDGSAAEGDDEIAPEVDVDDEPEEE
E. coli topoisomerase IV (topo IV), sequence (P20083 whole entry): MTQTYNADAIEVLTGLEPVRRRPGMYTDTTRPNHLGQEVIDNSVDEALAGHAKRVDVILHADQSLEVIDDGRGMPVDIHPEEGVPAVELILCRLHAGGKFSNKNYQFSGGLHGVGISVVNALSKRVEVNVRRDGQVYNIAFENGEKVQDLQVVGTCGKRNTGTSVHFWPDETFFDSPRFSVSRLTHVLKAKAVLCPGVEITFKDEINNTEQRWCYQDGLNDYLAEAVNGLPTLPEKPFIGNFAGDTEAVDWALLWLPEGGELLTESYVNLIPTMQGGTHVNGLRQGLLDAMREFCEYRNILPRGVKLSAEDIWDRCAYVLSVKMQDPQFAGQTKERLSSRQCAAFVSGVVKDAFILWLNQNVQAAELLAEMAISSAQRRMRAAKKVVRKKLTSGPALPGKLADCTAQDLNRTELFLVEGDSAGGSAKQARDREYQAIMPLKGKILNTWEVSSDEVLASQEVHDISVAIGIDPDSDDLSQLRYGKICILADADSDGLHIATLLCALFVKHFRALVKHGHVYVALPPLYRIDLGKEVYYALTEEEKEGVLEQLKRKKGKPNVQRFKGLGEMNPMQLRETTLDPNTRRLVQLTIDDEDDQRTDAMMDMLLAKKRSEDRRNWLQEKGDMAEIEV
E. coli topoisomerase IV (topo IV), sequence (P0AFI2 whole entry): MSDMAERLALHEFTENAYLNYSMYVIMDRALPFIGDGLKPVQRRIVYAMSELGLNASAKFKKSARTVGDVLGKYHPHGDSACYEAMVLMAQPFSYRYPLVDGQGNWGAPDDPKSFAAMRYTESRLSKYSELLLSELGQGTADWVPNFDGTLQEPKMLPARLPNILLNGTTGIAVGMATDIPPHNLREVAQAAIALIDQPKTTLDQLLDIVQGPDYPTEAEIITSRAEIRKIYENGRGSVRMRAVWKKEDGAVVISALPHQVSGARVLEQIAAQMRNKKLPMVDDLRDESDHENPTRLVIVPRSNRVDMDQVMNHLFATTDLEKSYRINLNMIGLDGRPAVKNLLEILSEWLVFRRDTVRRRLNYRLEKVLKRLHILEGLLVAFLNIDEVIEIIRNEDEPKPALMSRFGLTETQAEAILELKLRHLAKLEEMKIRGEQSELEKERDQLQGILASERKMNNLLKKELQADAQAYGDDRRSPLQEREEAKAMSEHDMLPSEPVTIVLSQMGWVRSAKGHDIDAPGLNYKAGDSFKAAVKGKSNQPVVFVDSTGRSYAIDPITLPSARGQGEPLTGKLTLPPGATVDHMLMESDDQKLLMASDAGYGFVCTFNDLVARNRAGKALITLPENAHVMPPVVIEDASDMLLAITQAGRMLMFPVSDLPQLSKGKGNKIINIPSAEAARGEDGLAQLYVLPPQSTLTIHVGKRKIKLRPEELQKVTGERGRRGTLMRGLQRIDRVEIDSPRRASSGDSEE

COc1c(N2C[C@@H]3CCCN[C@@H]3C2)c(F)cc2c(=O)c(C(=O)O)cn(C3CC3)c12 [Moxifloxacin, reference compound]
MIC [1, 44]: 0.125 µg/mL (≈ 0.311 µM)

C[C@H]1OC(=O)C[C@@H](C(=O)O)NC(=O)[C@H](CO)NC(=O)[C@@H](CCCNC(=N)N)NC(=O)CNC(=O)[C@H](Cc2ccccc2)NC(=O)[C@@H](CO)NC(=O)C[C@@H](C(=O)O)NC(=O)[C@H](Cc2cncn2C)NC(=O)C1NC(=O)[C@@H](CCCNC(=N)N)NC(=O)[C@@H](NC(=O)[C@H](Cc1c[nH]c2ccccc12)NC=O)[C@@H](C)O (stereo partly drawn) [compound of Formula IV] (For-WT[dR][ξThr(3R)(O-yl)][His(π-Me)][βAsp][dS]FG[dR]SD-OH; ester 4-12)
MIC [2]: 0.0625 µg/mL | MIC ([1]; Mycobacterium tuberculosis H37Rv mc^26020): 0.25 µg/mL | MIC [1, 44]: 0.25 µg/mL | MIC [3]: 16 µg/mL | MIC [4]: 8 µg/mL | MIC [5]: 16 µg/mL | MIC [6]: 128 µg/mL | MIC ([7]; Escherichia coli WO153): 0.0625 µg/mL | MIC ([7]; Escherichia coli, E. coli WO153, compromised penetration barrier, read-out: MIC): 0.0625 µg/mL | MIC of tolC deletion mutant, times higher as compared to E. coli WO153 [8]: 4 times | MIC of tolC deletion mutant, times lower than in the wild type [8]: 64 times | MIC ([8]; Escherichia coli ΔtolC, Keio collection mutant): 0.25 µg/mL | MIC ([8]; Escherichia coli, E. coli tolC deletion mutant, read-out: MIC): 0.25 µg/mL | MIC [9]: 8 µg/mL | MIC [10]: 16 µg/mL | MIC [11]: 16 µg/mL | MIC [12]: 128 µg/mL | MIC [13]: 32 µg/mL | MIC [14]: 64 µg/mL | MIC [15]: > 128 µg/mL | MIC [16]: 128 µg/mL | MIC [17]: 128 µg/mL | MIC [18]: > 128 µg/mL | MIC [19]: > 128 µg/mL | MIC [20]: > 128 µg/mL | MIC [21]: > 128 µg/mL | MIC [22]: 64 µg/mL | MIC [23]: > 128 µg/mL | MIC [24]: > 128 µg/mL | toxicity in a mouse, survival [25]: no indications of toxicity | efficacy, septicemia infection with E. coli ATCC25922 ([26]; 100 mg kg^−1 dose intraperitoneal): completely protected | efficacy, septicemia infection with E. coli ATCC25922 ([26]; single dose of 25 mg kg^−1 intraperitoneal): significant efficacy | effect on DNA synthesis (^14C-thymidine incorporation) [27]: inhibits DNA synthesis | effect on RNA, protein and fatty acid synthesis [27]: less of an effect | cell length compared to nontreated cells [28]: approximately 2 times | killing of exponentially growing M. tuberculosis ([29]; exponential cells): highly bactericidal | killing of stationary M. tuberculosis ([29]; stationary cells): highly bactericidal | DNA cleavage by MtbGyrase [30]: induced DNA cleavage | supercoiling activity of MtbGyrase [30]: inhibited the supercoiling activity | inhibition of DNA supercoiling by gyrase compared with supercoil relaxation by topo IV [31]: more potent inhibitor of DNA supercoiling by gyrase | DNA cleavage by E. coli gyrase ([31]; strong cleavage visible at 5 nM enzyme): stimulated DNA cleavage | DNA cleavage by E. coli topo IV [32]: stimulated DNA cleavage | DNA cleavage in the absence of ATP ([33]; absence of ATP): little to no cleavage | pIC50 ([33]; in the presence of ATP): ~6.00 | activity against commensal bacteria [34]: no activity | MIC [35]: 16 µg/mL | toxicity against human cell line [36]: no toxicity | toxicity against human cell line [37]: no toxicity | toxicity against human cell line [38]: no toxicity | IC50 [39]: > 128 µg/mL | IC50 [40]: > 128 µg/mL | IC50 [41]: > 128 µg/mL | solubility [42]: > 40 mg/mL | overall rate (vmax) of ATPase activity [43]: 45±7.2 ATP·s^−1 per enzyme
